Earlier results on 3 compounds are cited in patent US20120178757A1, “Method For The Prevention Of Cancer Metastasis” (NOTTINGHAM UNIVERSITY HOSPITALS NHS TRUST, priority 2010, published 2012).

Entries after “also recorded” stand apart in the source; their conditions may differ.

Series [1] relates to breast cancer cells. The following applies: in vitro breast cancer cells.
Series [2] concerns prostate cancer. The following applies: coincidental treatment for hypertension or benign prostate hyperplasia.
Series [3] concerns carcinoma cell lines of colon, prostate, ovary and breast. As to conditions: adrenoceptor-mediated, norepinephrine-induced migration of cancer cells.
Series [4] has as its system human pancreatic cell lines.

For `COc1cc2nc(N3CCN(C(=O)C4COc5ccccc5O4)CC3)nc(N)c2cc1OC` (stereo not drawn) [doxazosin, Doxazosin], in series [1], the apoptosis entry is recorded as “induce apoptosis” and the proliferation result is “inhibit proliferation”. The “incidence of prostate cancer” value in series [2] is on record as “significantly lowered the incidence of prostate cancer”.
For `COc1cc2nc(N3CCN(C(=O)C4CCCO4)CC3)nc(N)c2cc1OC` (stereo not drawn) [terazosin, Terazosin], the “incidence of prostate cancer” value in series [2] was “significantly lowered the incidence of prostate cancer”.
Consider `CC(C)NCC(O)COc1cccc2ccccc12` (stereo not drawn) [propranolol, Propranolol], for which, in series [3], the cell migration result is given as “can be inhibited; also recorded: is inhibited”. For the same compound, the proliferation result in series [4] was “can reduce proliferation”.
